Experimental data: US9327023B2, “HER2 targeting agent treatment in non-HER2-amplified cancers having HER2 expressing cancer stem cells” (The Regents of the University of Michigan, priority 2011, dated 2016)
Entries after “also recorded” stand apart in the source; their conditions may differ.

Key:
[1] = system: IL6, IL8, and CCL5; assay: cytokine secretion of Sum159-HER2+PTEN- cells, ELISA; format: cell-based, human; conditions: for secretion of all three cytokines (IL6, IL8, CCL5) / reduced the levels of these cytokines: Sum159-HER2+PTEN- cells, 1 mM Stat3 Inhibitor VII; for secretion of all three cytokines (IL6, IL8, CCL5): 5 mM Bay11-7082, 5 mM perfosine; for reduced the levels of these cytokines: 5 mM perfosine
Method: The NF-kB transcription factor is involved in the transcription of a number of cytokine genes including IL6, IL8, and CCL5 (Yu et al., 2010; herein incorporated by reference in its entirety). Furthermore, IL6-activated NF-kB signaling is mediated by Stat3 and Akt signaling pathways (Iliopoulos et al., 2009; herein incorporated by reference in its entirety). […] The effect of recombinant cytokines or cytokine-blocking antibodies on cytokine production was determined.

[2] = system: HER2 amplified BT474 tumor xenografts; assay: BT474 xenograft in fat pad, early and late treatment; format: in vivo, NOD/SCID mice; conditions: for growth of established BT474 tumors: late treatment, trastuzumab 4 mg/kg IP twice a week, docetaxel 10 mg/kg IP once a week
Method: (§1) Five-week old NOD/SCID mice from breeding colony, University of Michigan, Harland and Jackson Laboratory were used throughout the experiments. All experiments involving live mice were conducted in accordance with standard operating procedures approved by University Committee on the Use and Care of Animals at the University of Michigan (ULAM). An estrogen pellet was subcutaneously implanted in each mouse with the fat pad injection of MCF7 or ZR75-1 cells. Mice were sacrificed when tumor reached 1-1.2 CM.
(§2) A xenograft model was used to simulate clinical disease in adjuvant (early treatment) and advanced (late treatment) setting. 5 mice per treatment group were used. For adjuvant setting, 50,000 cells of BT474, ZR75-1 and MCF7 were injected into fat pads and began treatment immediately after inoculation. To simulate advanced disease, 1 million cells of BT474, ZR75-1 and MCF7 were inoculated into fat pads and tumors allowed to reach a size of approximately 0.4 cm. Then, treatment described below was initiated and continued along with assessment of tumor growth for 6-week period. Animals were sacrificed right after completion of 6-week treatment and cancer stem cells were analyzed by Aldefluor assay as described previously.
(§3) NOD/SCID mice implanted with luciferase-labeled cells received 6-week of treatment in both advanced and adjuvant setting.
(§4) Fat pad tumor diameter was measured by caliper weekly. Tumor volumes were calculated using the formula: volume=width^2×length/2. Luciferase-labeled tumor growth was monitored at least every 2 weeks using in vivo imaging system (ISVS, Caliper Life Science). Mice were injected with luciferin (Caliper), anesthetized and imaged according to manufacturer's protocols. For photon flux counting, a charge-coupled device camera system (Xenogen) with a nose-cone isofluorane delivery system and heated stage for maintaining body temperature was used. Results were analyzed after 10 minutes of exposure using the Living Image software provided with the Xenogen imaging system.

[3] = system: SUM159-HER2+PTEN- xenografts; assay: SUM159-HER2+PTEN- trastuzumab-resistant xenografts; conditions: for serum IL6 or IL8 levels: human specific ELISA; for percent of Aldefluor-positive cells in tumors: mouse, in vivo; for body weight: tumor-bearing mice, docetaxel 10 mg/kg once a week; for tumor growth: 8 weeks, perifosine 20 mg/kg twice a week, anti-IL6R 10 mg/kg once a week; for serum human IL6 and IL8 in control and docetaxel-treated mice higher than in treated mice: ELISA
[4] = system: luminal ZR75-1 tumor xenografts; assay: ZR75-1 xenograft in fat pad, early and late treatment; format: in vivo, NOD/SCID mice; conditions: for growth of established ZR75-1 tumors: late treatment, trastuzumab 4 mg/kg IP twice a week, docetaxel 10 mg/kg IP once a week
Method: as §1, §2, §3, §4

[5] = system: Sum159 cells; assay: CD44/CD24 flow cytometry of Sum159 cells; format: cell-based, human; conditions: 5 days
Method: (§5) To measure ALDH activity, the Aldefluor assay was carried out according to manufacturer's guidelines (StemCell Technologies, Inc., Durham, N.C.). Indicated cells were incubated with fluorophore-conjugated CD44 or CD24 antibodies alone or in combination on ice for 30 min, washed with Hank's balanced salt solution (HBSS), and resuspended in DAPI containing HBSS buffer for flow cytometry analyses.
However, there was approximately a 2-fold increase in IL6 secretion when cells were treated for 3 weeks or longer (SEE FIG. 14A). […] The effects of trastuzumab-mediated IL6 production on CSCs were also tested. […] In contrast, downregulation of PTEN in these cells generated a population that contained approximately 10% CD44^+/CD24^− cells (FIG. 14B). […] To determine whether induction of the CSC phenotype was dependent on IL6 production, the effect of addition of IL6 receptor antibody on induction of the CSC phenotype was assessed. […] The ability of the anti-IL6R antibody to affect the CD44^+/CD24^− population in Sum159 cells, which lack the expression of the luminal CD24 marker, was examined. […] This discrepancy may be explained by the existence of different stem cell populations in different breast cancer subtypes.

[6] = system: trastuzumab-resistant BT474-PTEN- xenografts; assay: BT474-PTEN- xenografts; format: in vivo, NOD/SCID mice; conditions: for secondary tumors and distant metastasis after excision of primary tumors: excised after 8 weeks of treatment, luciferase imaging
Text: Treatments for all early settings were 8 weeks long. […] Drug doses were as described in early setting.
To determine the effects of these treatments on the development of metastasis, we excised primary BT474-PTEN^− tumors after 8 weeks of treatment and assessed subsequent development of local and distant metastasis by luciferase imaging (FIG. 7D).

[7] = system: BT474-DsRed and BT474-PTEN- cells; assay: CD44+/CD24- flow cytometry of BT474 cells; format: cell-based, human
Method: as §5
To determine whether induction of the CSC phenotype was dependent on IL6 production, the effect of addition of IL6 receptor antibody on induction of the CSC phenotype was assessed. […] The ability of the anti-IL6R antibody to affect the CD44^+/CD24^− population in Sum159 cells, which lack the expression of the luminal CD24 marker, was examined.

[8] = system: trastuzumab-sensitive BT474-DsRed xenografts; assay: BT474-DsRed xenografts; format: in vivo, NOD/SCID mice; conditions: 7-week period, compared to saline
[9] = system: BT474 cells; assay: cell growth / viable cells of BT474 cells; format: cell-based, human; conditions: parental BT474 cells
[10] = system: BT474 cells; assay: tumorspheres in suspension cultures of BT474 cells; format: cell-based, human
Method: Single cells were plated on ultra-low attachment plates at a density of 1×10^5/ml and grown for 7 days in a mammocult medium (Stem Cell Technologies). After the treatment of primary spheres, they were dissociated into single-cell suspension and plated at a density of 5×10^3-1×10^4/ml for the subsequent passages. Secondary spheres were counted after 5-7 days in culture.

[11] = system: parental BT474 cells; assay: co-culture of parental BT474 cells with BT474-PTEN-LTT cells; format: cell-based, human
Text: (§6) The green fluorescent protein (GFP) label in the parental (PTEN wild-type) cells allowed separation by flow cytometry of cell populations following co-culture. Co-culture of parental BT474-GFP cells with BT474-PTEN^−LTT cells increased the percentage of CD44^+/CD24^− CSCs from 0.1% to 60% in parental cells (SEE FIG. 15A). Single GFP-expressing parental BT474 cells were sorted after 3 weeks of co-culture with BT474-PTEN^−LTT and generated multiple colonies. […] To examine the direct role of IL6 in these processes, parental BT474 or SKBR cells were stimulated with recombinant IL6 or conditioned medium (CM) from BT474-PTEN^−LTT cells in the presence or absence of anti-IL6R antibody.

[12] = system: breast CSCs (tumor-initiating cells); assay: reimplantation assay of residual tumor cells into secondary mice; format: in vivo; conditions: residual tumors from treated mice
Text: One of the hallmarks of CSC model is their ability to initiate tumors in secondary reimplantation assays (Clarke et al., 2006; herein incorporated by reference in its entirety).

[13] = system: parental BT474 or SKBR cells; assay: stimulation with recombinant IL6 or conditioned medium, mesenchymal phenotype and CD44; format: cell-based, human; conditions: 5 days
Text: as §6

[14] = system: HER2 expression in MCF7 cells; assay: co-culture of MCF7 cells with human osteocytes, HER2 expression by flow cytometry; format: cell-based; conditions: MCF7 co-cultured with human osteocytes
Method: Preparation of cells for FACS analysis and sorting was described as followings. Cells were collected and rinsed twice in 1×PBS containing 2% FBS and a fraction of cells were added with human immunoglobulin to identify non-specific binding and use these cells as a gate for negative control. Cells were incubated with appropriate antibody dilution as manufacture's guidelines. The antibody included anti-HER2/neu APC (Biosciences, Cat#340554), anti-HER2/neu PE (Biosciences, Cat#340552).
To simulate the bone microenvironment in vitro, co-culture experiments were performed utilizing MCF7, DsRed labeled with osteocytes generated from human bone mesenchymal stem cells. […] A number of biological effects of the bone microenvironment and mediated by RANK-ligand.

Cc1ccc(S(=O)(=O)/C=C/C#N)cc1 [Bay11-7082]
secretion of all three cytokines (IL6, IL8, CCL5) [1]: completely inhibited
secretion of all three cytokines (IL6, IL8, CCL5) ([1]; listed as Bay11): almost completely blocked; also recorded: completely suppressed

CC(=O)O[C@@]12CO[C@@H]1C[C@H](O)[C@@]1(C)C(=O)[C@H](O)C3=C(C)[C@@H](OC(=O)[C@H](O)[C@@H](NC(=O)OC(C)(C)C)c4ccccc4)C[C@@](O)([C@@H](OC(=O)c4ccccc4)[C@H]21)C3(C)C [docetaxel]
tumor growth / formation, BT474 ([2]; early (adjuvant) setting): suppressed tumor formation
growth of established BT474 tumors [2]: reduced tumor growth
growth of established BT474 tumors ([2]; listed as Docetaxel): highest efficacy to shrink tumors
serum IL6 or IL8 levels [3]: no significant effect
percent of Aldefluor-positive cells in tumors [3]: no significant effect; also recorded: no reduction
body weight [3]: lost body weight
tumor growth / formation, ZR75-1 ([4]; early (adjuvant) setting): suppressed tumor formation
growth of established ZR75-1 tumors [4]: reduced tumor growth
growth of established ZR75-1 tumors ([4]; listed as Docetaxel): highest efficacy to shrink tumors

CCCCCCCCCCCCCCCCCCOP(=O)([O-])OC1CC[N+](C)(C)CC1 [perifosine]
secretion of all three cytokines (IL6, IL8, CCL5) [1]: only partially inhibited
reduced the levels of these cytokines [1]: 50%
tumor growth [3]: significantly inhibited tumor growth
serum human IL6 and IL8 in control and docetaxel-treated mice higher than in treated mice [3]: 2 fold
serum IL6 or IL8 levels [3]: significantly reduced
percent of Aldefluor-positive cells in tumors [3]: significantly reduced; also recorded: substantial reduction
body weight [3]: less body weight loss

Stat3 Inhibitor VII
secretion of all three cytokines (IL6, IL8, CCL5) [1]: only partially inhibited
reduced the levels of these cytokines [1]: 50%

Tocilizumab [anti-IL6R antibody]
cell growth [5]: substantial growth arrest
generation of CD24+ cells [5]: 11%
IL6-increased production of all three cytokines ([1]; HER2+PTEN- cells with recombinant IL6): completely inhibited
reduced the levels of these cytokines [1]: more than 50%
growth of BT474-PTEN- xenografts ([6]; early treatment): completely blocked tumor growth
tumor growth as assessed by tumor weight at sacrifice ([6]; established tumors (late treatment)): completely blocked tumor growth
secondary tumors and distant metastasis after excision of primary tumors [6]: no distant metastasis detected
secondary tumors and distant metastasis after excision of primary tumors ([6]; listed as Anti-IL6R antibody): completely inhibited
serum IL6 levels ([6]; human specific ELISA): lowest levels
CD44+/CD24- CSC population [7]: reduced
increase in CD44+/CD24- population induced by trastuzumab [7]: completely blocked
growth of BT474-DsRed xenografts [8]: little effect
tumor growth [3]: significantly inhibited tumor growth
serum human IL6 and IL8 in control and docetaxel-treated mice higher than in treated mice [3]: 2 fold
serum IL6 or IL8 levels [3]: significantly reduced
percent of Aldefluor-positive cells in tumors [3]: significantly reduced; also recorded: substantial reduction
CM- or IL6-conferred resistance to trastuzumab [9]: blocked; also recorded: reversed
number of tumorspheres induced by CM [10]: reduced
induction of the CD44+/CD24- phenotype ([11]; antibody added at the time of co-culture): inhibited
CD44+/CD24- phenotype in parental cells ([11]; late treatment): no effect; also recorded: resistant
frequency of CSCs reduced [12]: more than 50%
frequency of breast CSCs [12]: significantly lower
IL6- or CM-induced mesenchymal phenotype and CD44 expression [13]: able to reverse

denosumab
HER2 induction by osteocyte co-cultures [14]: partially blocked
HER2 induction by osteocyte co-cultures ([14]; listed as Denosumab): able to suppress
